Results taken from patent publication US6211200A, “Metal complexes” (SmithKline Beecham Corporation, priority 1998, dated 2001).

T1: G-CSF receptor (Mus musculus, UniProt P40223)
T1 construct: they express endogenous G-CSF receptors; endogenous in cells; host or cells: NFS60 (murine myeloid cell line) containing a G-CSF-responsive element / luciferase reporter
T1 sequence (P40223 26-837): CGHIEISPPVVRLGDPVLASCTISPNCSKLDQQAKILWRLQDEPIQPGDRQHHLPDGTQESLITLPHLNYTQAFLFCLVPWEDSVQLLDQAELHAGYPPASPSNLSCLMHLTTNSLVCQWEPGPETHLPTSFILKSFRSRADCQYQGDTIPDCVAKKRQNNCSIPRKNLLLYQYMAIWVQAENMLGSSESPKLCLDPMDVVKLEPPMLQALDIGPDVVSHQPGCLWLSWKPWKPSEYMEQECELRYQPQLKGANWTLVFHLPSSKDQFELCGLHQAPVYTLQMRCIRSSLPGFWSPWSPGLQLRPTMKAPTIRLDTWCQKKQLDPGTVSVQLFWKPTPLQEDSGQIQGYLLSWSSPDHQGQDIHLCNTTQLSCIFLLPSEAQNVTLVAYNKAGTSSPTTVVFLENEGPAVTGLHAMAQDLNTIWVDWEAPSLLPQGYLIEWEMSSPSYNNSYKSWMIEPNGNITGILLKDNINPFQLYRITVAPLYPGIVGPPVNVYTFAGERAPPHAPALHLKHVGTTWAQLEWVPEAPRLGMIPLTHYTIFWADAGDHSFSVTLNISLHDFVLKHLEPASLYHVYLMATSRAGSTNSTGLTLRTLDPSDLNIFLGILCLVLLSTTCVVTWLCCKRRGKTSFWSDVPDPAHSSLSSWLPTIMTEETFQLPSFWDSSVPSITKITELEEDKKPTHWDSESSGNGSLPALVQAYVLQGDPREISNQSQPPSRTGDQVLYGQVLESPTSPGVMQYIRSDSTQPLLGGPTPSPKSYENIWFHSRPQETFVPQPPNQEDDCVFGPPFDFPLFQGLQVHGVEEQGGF


Columns and labels:
G-CSF receptor [1] = target: T1, G-CSF receptor; test: Luciferase assay in NFS60 cells in the presence of EDTA; format: cell-based, murine; settings: for G-CSF agonist activity in the presence of EDTA (metal ion mediation): FIGS. 3 and 4
Procedure: The media in this assay contained a small amount (1-5 uM) of zinc(II).
In order to determine the requisiteness of zinc chelation of small organic molecules to agonist activity at the G-CSF receptor, the above luciferase assay was performed in the presence of EDTA.

G-CSF receptor [2] = target: T1, G-CSF receptor; test: Luciferase reporter gene assay in G-CSF-responsive NFS60 cells; format: cell-based, murine; settings: for activation in the luciferase assay: concentration range of 1 to 100 micromolar
Procedure: Activity of compound 1a is below the threshold of 150% over background. The study was performed as a Luciferase assay configured on the G-CSF-responsive NFS60 cell line as described in Tian et al., Science 281, 257-259 (1998). The experiments shown in FIGS. 2-8 used the same NFS60 cell line.
Compounds of the present invention were tested for potency as agonist of the G-CSF receptor in a Luciferase reporter gene assay such as described in Tian et al., Science 281, 257-259 (1998). The NFS60 cells (Holmes, et al., Proc. Natl. Acad. Sci. USA 82:6687-6691 (1985)) were selected because they express endogenous G-CSF receptors closely matching the pattern of STAT (signal transducers and activators of transcription) activation observed in primary murine and human bone marrow cells.

G-CSF/Fc fusion protein = test: Isothermal titration microcalorimetry; format: binding; settings: in the presence of zinc
Procedure: Zinc-mediated affinity of compounds from this invention for the G-CSF receptor was measured by isothermal titration microcalorimetry experiments. Titration microcalorimetry detects binding as heat originating from the intrinsic bond forming enthalpy change. […] In a separate experiment, the compounds were then assayed in the presence of zinc and a G-CSF/Fc fusion protein, which contained the extracellular domain of the G-CSF receptor presented in a dimeric form due to the Fc component.

CFU-G = CFU-G assay; format: cell-based, murine; settings: concentration range of 1 to 100 micromolar
Procedure: Compounds of this invention are also tested for activity in the following assays: CFU-G assay (an example of which is described in King A. G., Talmadge J., Badger A. M., Pelus L. M. Regulation of colony stimulating activity production from bone marrow stromal cells by the hematoregulatory peptide, HP-5. Exp. Hematol. 20:223-228, 1992) and in vivo evaluation of peripheral blood neutrophil and monocyte count in the mouse (an example of which is described in Pelus, L. M.; King, A. G.; Broxmeyer, H. E.; DeMarsh, P. L.; Petteway, S. R.; Bhatnagar, P. K., In vivo modulation of hematopoiesis by a novel hematoregulatory peptide Exp-Hematol. 1994 22(3):239-47). In order to confirm the requirement for zinc(II) chelation, the above CFU-G assay was also conducted in the presence of EDTA.

[3] = tested on: peripheral blood neutrophil and monocyte count; test: In vivo evaluation of peripheral blood neutrophil and monocyte count; settings: mouse
Procedure: Compounds of this invention are also tested for activity in the following assays: CFU-G assay (an example of which is described in King […]., Badger A. M., Pelus L. M. Regulation of colony stimulating activity production from bone marrow stromal cells by the hematoregulatory peptide, HP-5. Exp. […] M.; King, […].; DeMarsh, […]., In vivo modulation of hematopoiesis by a novel hematoregulatory peptide Exp-Hematol. 1994 22(3):239-47).

Molecule	activation in the luciferase assay (G-CSF receptor [2])	affinity for G-CSF/Fc fusion protein (G-CSF/Fc fusion protein)	G-CSF agonist activity in the presence of EDTA (metal ion mediation) (G-CSF receptor [1])	activation in the murine CFU-G assay (CFU-G)	peripheral blood neutrophil and monocyte count [3]	also measured
zinc (II) [reference compound]						effect of metal chlorides on the EDTA depleted activity of Compound 1a (G-CSF receptor [1]; 50 micromolar EDTA, metal at 0.5-10 micromolar, FIGS. 7 and 8): can overcome the inhibition
c1ccc(C23NC(=Nc4nc5ccccc5[nH]4)NC2(c2ccccc2)NC(=Nc2nc4ccccc4[nH]2)N3)cc1 (stereo not drawn) [Compound 2a, 2,5-Bis[2-benzimidazolylimino]-3a,6a-diphenyl-1,2,3,3a,4,5,6,6a-octahydroimidazo[4,5-d]imidazole]	above 150 % of control					
c1ccc(C23NC(=Nc4nc5ccccc5[nH]4)NC2(c2ccccn2)NC(=Nc2nc4ccccc4[nH]2)N3)nc1 (stereo not drawn) [Compound 1a, 2,5-Bis[2-benzimidazolylimino]-3a,6a-bis(2-pyridyl)-1,2,3,3a,4,5,6,6a-octahydroimidazo[4,5-d]imidazole]	above 150 % of control	high, submicromolar affinity	abrogated	above 150 % of control	elevation of peripheral blood neutrophil and monocyte count	effect of EDTA on luciferase activity (G-CSF receptor [1]; EDTA 1.2 millimolar, media contained 1-5 uM zinc(II), FIG. 3): antagonized; luciferase activity (G-CSF agonist activity) (G-CSF receptor [2]; NFS60 cells, absence of zinc, FIG. 1): < 150 % over background; luciferase activity (G-CSF receptor [2]; NFS60 cells, presence of 1 uM zinc (II), FIG. 2): about 350 % over control; G-CSF agonist efficacy (G-CSF receptor [2]; presence of 1 uM zinc(II), at 1 uM, FIG. 2): 350 % over background
Cc1ccc2nc(N=C3NC4(c5ccccn5)NC(=Nc5nc6ccccc6[nH]5)NC4(c4ccccn4)N3)[nH]c2c1.O=C(O)C(F)(F)F.O=C(O)C(F)(F)F (stereo not drawn) [Compound 3a, 5-(2-benzimidazolylimino)-2-[(5-methyl-2-benzimidazolyl)imino]-3a,6a-bis(2-pyridyl)-1,2,3,3a,4,5,6,6a-octahydroimidazo[4,5-d]imidazole bis(trifluoroacetate) salt]	above 150 % of control	high, submicromolar affinity		above 150 % of control	elevation of peripheral blood neutrophil and monocyte count	
[Zn+2].c1ccc(C23NC(=Nc4nc5ccccc5[nH]4)NC2(c2ccccn2)NC(=Nc2nc4ccccc4[nH]2)N3)nc1.c1ccc(C23NC(=Nc4nc5ccccc5[nH]4)NC2(c2ccccn2)NC(=Nc2nc4ccccc4[nH]2)N3)nc1 (stereo not drawn) [Compound 1, Bis{2,5-bis[2-benzimidazolylimino]-3a,6a-bis(2-pyridyl)-1,2,3,3a,4,5,6,6a-octahydroimidazo[4,5-d]imidazole-N,N'}-zinc(II)]	above 150 % of control					
recombinant G-CSF: natural ligand for the G-CSF receptor (G-CSF or recombinant G-CSF) (protein, UniProt P09919 31-207, looked up) Granulocyte …: TPLGPASSLPQSFLLKCLEQVRKIQGDGAALQEKLVSECATYKLCHPEELVLLGHSLGIPWAPLSSCPSQALQLAGCLSQLHSGLFLYQGLLQALEGISPELGPTLDTLQLDVADFATTIWQQMEELGMAPALQPTQGAMPAFASAFQRRAGGVLVASHLQSFLEVSYRVLRHLAQP			not mediated by metal ions			effect of EDTA on luciferase activity (G-CSF receptor [1]; EDTA 1.2 and 5 millimolar, FIG. 4): little effect
